Results from paper PMC12881674, “Activation of TRPV3 channels in bladder cancer cells stimulates ATP release” (Molecular Pharmacology, 2025).

Columns and labels:
HEK293 cells = system: HEK293 cells; design: method as in PMID 35916168; details: >10 μM; cited from earlier work
KU-19-19 cells = experiment: ATPlite luminescence assay of extracellular ATP; type: cell-based, human; details: pretreatment with 10 μM ruthenium red, 50 μM AV3-1
Experimental: KU-19-19 cells (1 × 10^5 per well) were plated in 24-well plates and cultured for 24 hours. Medium was removed, and wells were washed with PBS before adding 1 mL of drugs dissolved in PBS. After 30 minutes, 100 μL of the supernatant was transferred to a 96-well plate. ATP content was measured using the ATPlite luminescence ATP assay (Revvity, catalog number 6016943) following manufacturer’s instructions. Luminescence was recorded using a Polarstar Omega reader and normalized to control wells without addition of drugs.
Fig. 4 TRPV3 activation by AV3-1 was enhanced by cholesterol supplementation and causes ATP release in KU-19-19 bladder cancer cells. […] Current amplitudes were recorded using voltage ramps from −100 mV to +100 mV (500-millisecond duration) and expressed as current density (pA/pF) measured at +100 mV and −100 mV. (C) Quantification of current densities (pA/pF) at −100 mV (inward current) and +100 mV (outward current) at the time points (1, 2) as indicated in (A, B). […] Statistical significance was determined using Kruskal-Wallis ANOVA followed by Conover test; ∗P < .05. […] Inset: Box-and-whisker plots of AV3-1 potencies under control conditions (open box) and following cholesterol supplementation (gray box), derived from individual concentration-response fits and expressed as pEC50 (-log10(EC50 [M])). […]

Cc1ccc(O)c(C2CCC(C(C)C)=C2Cl)c1 (centres unmarked) [KS0365]
effects on HEK293 cells at higher concentrations (HEK293 cells): nonspecific effects

N.N.N.N.N.N.N.N.N.N.N.N.N.N.[Cl-].[Cl-].[Cl-].[Cl-].[Cl-].[Cl-].[O-2].[O-2].[Ru+3].[Ru+3].[Ru+4] [ruthenium red, reference compound]
effect on AV3-1-evoked ATP release (KU-19-19 cells): reduced ATP levels
